From patent US9648876B2, “Method of inhibiting biofilm formation” (Research Foundation of the City University of New York, priority 2015, dated 2017)
Like-named read-outs stand apart in the source and are kept apart here.

How the values were obtained:
[1] = test system: C. albicans mature biofilms; experiment: Established (mature, 24-h) biofilm susceptibility (XTT reduction, LIVE/DEAD confocal microscopy)
Method: LIVE/DEAD staining of the biofilm was performed and dead cells were quantified in confocal micrographs.
(§1) Candida albicans was subcultured onto Sabouraud dextrose agar (per liter: peptone 10 g, dextrose 40 g, agar 15 g; pH of 5.6) and incubated at 30° C. for 24 h. One colony was then added to yeast extract-peptone-dextrose (YPD; 1% yeast extract, 2% peptone, 2% dextrose) and incubated with shaking at 30° C. and 170 rpm for 16 h, after which cells were harvested, washed in phosphate-buffered saline (PBS), and diluted to a standard inoculum of 1.0×10^6 cells per ml.
For biofilm assays in microtiter plates, 100 μl of a standard inoculum of C. albicans cells (1.0×10^6 cells per ml) was added to the wells of a 96-well plate in triplicate, and the cells were allowed to adhere for 90 min at 37° C. After incubation, the plates were washed twice with PBS to remove nonattached cells. Then 100 μl of RPMI 1640 with L-glutamine, without sodium bicarbonate (GIBCO®), buffered to pH 7.0 with 165 mM morpholinepropanesulfonic acid (MOPS) was added to each well, and the plates were incubated at 37° C. for 24 h. Early-stage biofilms were prepared essentially as above, with the exception that the cells were induced to form biofilms for either 3 or 6 h prior to treatment.
Fluconazole was obtained from Sigma. All drugs were dissolved in dimethyl sulfoxide (DMSO).
Menadione and XTT [2,3-bis-(2-methoxy-4-nitro-5-sulfophenyl)-2H-tetrazolium-5-carboxyanilide] were obtained from Sigma-Aldrich. After a drug challenge, the wells were washed twice with PBS, and then 100 μl of XTT-menadione solution was added to the wells, and plates incubated in the dark for 1 h at 37° C. The absorbance of wells at 490 nm was read using a microplate reader (Biotec/Synergy software).
Candida albicans biofilms were treated with or without test compounds for various times, depending on the experimental design, after which the cells were prepared for microscopy by staining with the BacLight yeast viability kit, the contents of which include Syto-9 and propidium iodide (Molecular Probes, Eugene, Oreg.) according to the manufacturer's instructions. Confocal images were obtained using an Olympus FluoView10i microscope and a filter set for Syto-9 and propidium iodide. Overlays included phase contrast images. All confocal images were processed using ImageJ.
Biofilm viability was assayed by XTT reduction and calculated as follows:
[formula] where background wells contained XTT solution only; untreated wells received cells only, with no added drug.

[2] = test system: C. albicans DAY185 planktonic cells; experiment: Planktonic cell growth and viability; format: cell-based, Candida albicans; details: 0.06 μg per ml
Method: Small arrows (FIG. 1B and FIG. 1C) denote chains of yeast cells. Note the microcolonies apparent in the control culture at 3 hours (FIG. 2B) and 9 hours (FIG. 2C) denoted by the large arrows. […] Under these conditions, some yeast cells formed short linear chains, but there were few germ tubes, and the culture never developed true hyphae. […] When germ tubes were allowed to emerge before treatment with xanthochymol, the germ tubes elongated and branched for several hours. In contrast, when C. albicans DAY185 planktonic cells were grown in YPD in the presence or absence of either Garcinia benzophenone (70 μg per ml), there was no significant effect on the growth or viability.

[3] = test system: C. albicans early biofilms; format: cell-based, Candida albicans; details: fluconazole at 32 μg per ml, FIG. 3
Method: as §1
For biofilm assays in microtiter plates, 100 μl of a standard inoculum of C. albicans cells (1.0×10^6 cells per ml) was added to the wells of a 96-well plate in triplicate, and the cells were allowed to adhere for 90 min at 37° C. After incubation, the plates were washed twice with PBS to remove nonattached cells. Then 100 μl of RPMI 1640 with L-glutamine, without sodium bicarbonate (GIBCO®), buffered to pH 7.0 with 165 mM morpholinepropanesulfonic acid (MOPS) was added to each well, and the plates were incubated at 37° C. for 24 h. […]
Menadione and XTT [2,3-bis-(2-methoxy-4-nitro-5-sulfophenyl)-2H-tetrazolium-5-carboxyanilide] were obtained from Sigma-Aldrich. […] The absorbance of wells at 490 nm was read using a microplate reader (Biotec/Synergy software). […]
Biofilm viability was assayed by XTT reduction and calculated as follows: […]

[4] = target: histone acetyltransferase (HAT) p300 (Homo sapiens, UniProt Q09472); details: cited from earlier work
pCAF = pCAF (Homo sapiens, UniProt Q92831); details: cited from earlier work
Sequence of pCAF (Q92831 whole entry, species assumed): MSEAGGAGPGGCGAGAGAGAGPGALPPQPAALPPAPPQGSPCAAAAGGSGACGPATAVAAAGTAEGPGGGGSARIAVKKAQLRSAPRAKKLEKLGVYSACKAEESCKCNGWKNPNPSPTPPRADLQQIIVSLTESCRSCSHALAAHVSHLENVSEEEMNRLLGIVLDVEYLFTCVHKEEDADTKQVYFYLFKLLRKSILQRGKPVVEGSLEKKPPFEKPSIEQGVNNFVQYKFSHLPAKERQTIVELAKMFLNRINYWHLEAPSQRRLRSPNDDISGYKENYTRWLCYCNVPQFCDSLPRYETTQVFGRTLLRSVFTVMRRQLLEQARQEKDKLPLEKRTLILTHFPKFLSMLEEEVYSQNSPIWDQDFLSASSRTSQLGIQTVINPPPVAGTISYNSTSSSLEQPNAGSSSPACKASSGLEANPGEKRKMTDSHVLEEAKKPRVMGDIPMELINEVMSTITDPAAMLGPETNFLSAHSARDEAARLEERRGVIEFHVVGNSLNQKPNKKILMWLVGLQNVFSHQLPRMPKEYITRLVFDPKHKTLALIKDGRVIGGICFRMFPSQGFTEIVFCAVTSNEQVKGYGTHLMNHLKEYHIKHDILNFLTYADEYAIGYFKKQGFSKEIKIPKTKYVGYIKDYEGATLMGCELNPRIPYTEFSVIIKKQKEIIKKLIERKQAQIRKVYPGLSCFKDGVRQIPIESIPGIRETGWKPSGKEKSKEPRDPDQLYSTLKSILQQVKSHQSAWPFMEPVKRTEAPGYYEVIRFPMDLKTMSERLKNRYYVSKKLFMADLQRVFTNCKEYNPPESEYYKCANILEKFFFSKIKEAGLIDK

Sequence of histone acetyltransferase (HAT) p300 (Q09472 whole entry): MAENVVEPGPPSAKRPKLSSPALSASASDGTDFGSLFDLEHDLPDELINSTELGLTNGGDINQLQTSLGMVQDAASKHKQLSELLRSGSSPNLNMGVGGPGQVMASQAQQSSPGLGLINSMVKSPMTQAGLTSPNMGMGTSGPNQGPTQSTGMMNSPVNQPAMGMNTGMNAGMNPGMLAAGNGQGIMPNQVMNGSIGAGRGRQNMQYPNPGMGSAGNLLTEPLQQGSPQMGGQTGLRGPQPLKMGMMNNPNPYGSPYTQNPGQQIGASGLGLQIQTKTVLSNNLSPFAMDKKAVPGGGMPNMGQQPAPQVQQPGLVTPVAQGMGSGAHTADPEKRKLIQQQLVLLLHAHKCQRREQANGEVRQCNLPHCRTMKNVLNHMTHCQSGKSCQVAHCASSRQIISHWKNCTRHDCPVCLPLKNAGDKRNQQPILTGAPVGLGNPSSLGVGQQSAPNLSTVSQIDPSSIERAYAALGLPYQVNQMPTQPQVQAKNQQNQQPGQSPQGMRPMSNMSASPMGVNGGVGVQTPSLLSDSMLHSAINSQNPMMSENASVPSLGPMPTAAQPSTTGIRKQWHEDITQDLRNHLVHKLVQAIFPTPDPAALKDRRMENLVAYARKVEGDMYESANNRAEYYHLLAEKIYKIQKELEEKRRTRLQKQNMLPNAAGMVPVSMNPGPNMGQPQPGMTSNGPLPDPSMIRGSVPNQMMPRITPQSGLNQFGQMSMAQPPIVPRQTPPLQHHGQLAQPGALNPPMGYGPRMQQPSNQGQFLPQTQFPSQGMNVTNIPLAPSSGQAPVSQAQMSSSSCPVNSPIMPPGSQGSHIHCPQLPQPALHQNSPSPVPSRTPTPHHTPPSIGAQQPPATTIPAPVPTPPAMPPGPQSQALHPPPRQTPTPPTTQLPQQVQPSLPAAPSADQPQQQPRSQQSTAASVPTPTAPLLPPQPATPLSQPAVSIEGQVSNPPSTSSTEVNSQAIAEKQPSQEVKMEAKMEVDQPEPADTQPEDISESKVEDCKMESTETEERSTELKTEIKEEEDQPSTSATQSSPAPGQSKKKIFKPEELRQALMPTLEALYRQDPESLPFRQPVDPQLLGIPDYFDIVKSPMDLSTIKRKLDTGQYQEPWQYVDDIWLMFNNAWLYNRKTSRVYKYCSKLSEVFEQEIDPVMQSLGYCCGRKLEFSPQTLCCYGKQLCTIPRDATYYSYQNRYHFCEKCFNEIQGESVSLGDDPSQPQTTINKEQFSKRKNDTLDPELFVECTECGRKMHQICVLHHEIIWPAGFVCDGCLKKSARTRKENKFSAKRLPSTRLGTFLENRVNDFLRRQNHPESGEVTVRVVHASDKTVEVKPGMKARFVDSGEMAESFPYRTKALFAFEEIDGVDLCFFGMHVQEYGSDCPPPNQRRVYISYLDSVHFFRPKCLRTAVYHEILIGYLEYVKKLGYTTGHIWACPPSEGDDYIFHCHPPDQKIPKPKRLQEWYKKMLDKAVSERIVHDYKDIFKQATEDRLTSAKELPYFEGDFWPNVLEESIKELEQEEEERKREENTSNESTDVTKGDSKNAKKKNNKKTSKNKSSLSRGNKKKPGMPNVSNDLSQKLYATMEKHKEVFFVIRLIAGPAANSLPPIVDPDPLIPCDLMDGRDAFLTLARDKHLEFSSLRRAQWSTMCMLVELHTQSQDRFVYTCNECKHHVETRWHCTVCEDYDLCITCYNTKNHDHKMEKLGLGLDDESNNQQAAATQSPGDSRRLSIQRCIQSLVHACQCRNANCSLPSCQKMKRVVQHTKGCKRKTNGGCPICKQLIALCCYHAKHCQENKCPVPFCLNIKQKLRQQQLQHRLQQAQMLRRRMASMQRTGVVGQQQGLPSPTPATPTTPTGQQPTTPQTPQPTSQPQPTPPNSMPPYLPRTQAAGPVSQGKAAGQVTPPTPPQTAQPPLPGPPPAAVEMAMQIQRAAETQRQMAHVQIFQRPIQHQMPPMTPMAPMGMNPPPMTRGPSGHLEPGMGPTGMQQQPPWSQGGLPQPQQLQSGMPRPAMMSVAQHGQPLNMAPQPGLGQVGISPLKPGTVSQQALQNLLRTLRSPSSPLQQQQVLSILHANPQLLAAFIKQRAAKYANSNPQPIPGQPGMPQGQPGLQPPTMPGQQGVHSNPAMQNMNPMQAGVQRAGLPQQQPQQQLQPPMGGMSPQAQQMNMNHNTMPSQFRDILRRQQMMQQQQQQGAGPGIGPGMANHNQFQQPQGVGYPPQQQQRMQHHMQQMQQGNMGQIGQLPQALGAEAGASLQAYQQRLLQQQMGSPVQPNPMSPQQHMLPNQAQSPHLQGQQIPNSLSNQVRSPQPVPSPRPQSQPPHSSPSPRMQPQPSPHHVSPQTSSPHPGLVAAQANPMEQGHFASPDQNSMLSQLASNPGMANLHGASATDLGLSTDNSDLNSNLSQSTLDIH

**Q.** Which results are given for CC[C@H](C)C[C@H](C)CCCCCCCCC(=O)N[C@H]1C[C@@H](O)[C@@H](NCCN)NC(=O)[C@@H]2[C@@H](O)CCN2C(=O)[C@H]([C@H](O)CCN)NC(=O)[C@H]([C@H](O)[C@@H](O)c2ccc(O)cc2)NC(=O)[C@@H]2C[C@@H](O)CN2C(=O)[C@H]([C@@H](C)O)NC1=O [caspofungin]?
**A.** killing of biofilm (positive control) ([1]; 0.06 μg per ml): less effective against a biofilm; killing of planktonic yeast phase cells [2]: showed killing

**Q.** With OC(Cn1cncn1)(Cn1cncn1)c1ccc(F)cc1F [fluconazole] as the molecule, how does the “killing of biofilm cells by microscopy” value ([1]; 24-h biofilms, 24 h of exposure, confocal LIVE/DEAD) read?
**A.** The value was “minimal effect”.

**Q.** What about the reduction in viability ([1]; 24-h biofilms, fluconazole as high as 1,024 μg per ml, XTT assay) of the same molecule?
**A.** The reduction in viability was 15%.

**Q.** What about the IC50 ([1]; Candida albicans, 24 h, read-out: fluconazole IC50) of the same molecule?
**A.** Its IC50 is 13 µg/mL.

**Q.** What about the EC50 ([1]; Candida albicans, read-out: fluconazole EC50, mature biofilms, fluconazole alone) of the same molecule?
**A.** Its EC50 is over 1020 µg/mL.

**Q.** What about the EC50 ([1]; Candida albicans, read-out: fluconazole EC50, mature biofilms, with xanthochymol) of the same molecule?
**A.** Its EC50 is 13 µg/mL.

**Q.** What about the “reduction of biofilm activity” value [3] of the same molecule?
**A.** Its value is 20%.

**Q.** Which “inhibition of HAT p300” value [4] does the source give for C=C(C)CC[C@@H](C[C@@]12C[C@@H](CC=C(C)C)C(C)(C)[C@@](CC=C(C)C)(C(=O)C(C(=O)c3ccc(O)c(O)c3)=C1O)C2=O)C(=C)C [garcinol] here?
**A.** The value was “micromolar concentrations”.

**Q.** What about the “inhibition of pCAF” value (pCAF) of the same molecule?
**A.** The value was “micromolar concentrations”.
